Measured values taken from US12527325B2, “Pesticidally active diazine-amide compounds” (SYNGENTA CROP PROTECTION AG, priority 2019, dated 2026).

Columns and labels:
Assay type in all cases: in vivo
Myzus persicae [1] = assay: Example B8: Myzus persicae (Green Peach Aphid): Intrinsic Activity; settings: 120 h, test rate of 12 ppm, 24-well sucrose solution under Parafilm, 5 days after infestation
Text: Example B8: Myzus persicae (Green Peach Aphid): Intrinsic Activity
Test compounds prepared from 10′000 ppm DMSO stock solutions were applied by pipette into 24-well microtiter plates and mixed with sucrose solution. The plates were closed with a stretched Parafilm. A plastic stencil with 24 holes was placed onto the plate and infested pea seedlings were placed directly on the Parafilm. The infested plate was closed with a gel blotting paper and another plastic stencil and then turned upside down. The samples were assessed for mortality 5 days after infestation.

Spodoptera littoralis [2] = assay: Example B9: Spodoptera littoralis (Egyptian Cotton Leaf Worm), cotton leaf disc spray; settings: foliar, 72 h, application rate of 200 ppm, sprayed cotton leaf discs, L1 larvae, 3 days after infestation, read-out: control in at least one of the three categories (mortality, anti-feedant or growth inhibition)
Chilo suppressalis = assay: Example B4: Chilo suppressalis (Striped Rice Stemborer); settings: 144 h, application rate of 200 ppm, artificial diet, L2 larvae, 6 days after infestation, read-out: control in at least one of the three categories (mortality, anti-feedant or growth inhibition)
Summary of the method: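 Artificial diet was treated with aqueous dilutions made from 10'000 ppm DMSO stocks, dried, then infested with L2 larvae at 6–8 per well. Mortality, antifeedant effect and growth inhibition were assessed against untreated samples 6 days after infestation.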

Diabrotica balteata = assay: Example B1: Diabrotica balteata (Corn Root Worm); settings: 96 h, application rate of 200 ppm, sprayed maize sprouts, L2 larvae, 4 days after infestation, read-out: control in at least one of the two categories (mortality or growth inhibition)
Protocol: Example B1: Diabrotica balteata (Corn Root Worm)
Maize sprouts placed onto an agar layer in 24-well microtiter plates were treated with aqueous test solutions prepared from 10′000 ppm DMSO stock solutions by spraying. After drying, the plates were infested with L2 larvae (6 to 10 per well). The samples were assessed for mortality and growth inhibition in comparison to untreated samples 4 days after infestation.

Plutella xylostella [3] = assay: Example B5: Plutella xylostella (Diamond Back Moth); settings: 192 h, application rate of 200 ppm, 24-well artificial diet, eggs, 8 days after infestation, read-out: control in at least one of the two categories (mortality or growth inhibition)
Protocol: Example B5: Plutella xylostella (Diamond Back Moth)
24-well microtiter plates with artificial diet were treated with aqueous test solutions prepared from 10′000 ppm DMSO stock solutions by pipetting. After drying, Plutella eggs were pipetted through a plastic stencil onto a gel blotting paper and the plate was closed with it. The samples were assessed for mortality and growth inhibition in comparison to untreated samples 8 days after infestation.

Euschistus heros = assay: Example B2: Euschistus heros (Neotropical Brown Stink Bug); settings: 120 h, application rate of 200 ppm, sprayed soybean leaves, N2 nymphs, 5 days after infestation, read-out: control in at least one of the two categories (mortality or growth inhibition)
Protocol: Example B2: Euschistus heros (Neotropical Brown Stink Bug)
Soybean leaves on agar in 24-well microtiter plates were sprayed with aqueous test solutions prepared from 10′000 ppm DMSO stock solutions. After drying the leaves were infested with N2 nymphs. The samples were assessed for mortality and growth inhibition in comparison to untreated samples 5 days after infestation.

[4] = test system: Frankliniella occidentalis; assay: Example B3: Frankliniella occidentalis (Western Flower Thrips): Feeding/Contact Activity; settings: foliar, 168 h, application rate of 200 ppm, sprayed sunflower leaf discs, population of mixed ages, 7 days after infestation
Protocol: Example B3: Frankliniella occidentalis (Western Flower Thrips): Feeding/Contact Activity
Sunflower leaf discs were placed on agar in 24-well microtiter plates and sprayed with aqueous test solutions prepared from […] stock solutions. After drying the leaf discs were infested with a Frankliniella population of mixed ages. The samples were assessed for mortality 7 days after infestation.

Myzus persicae [5] = assay: Example B7: Myzus persicae (Green Peach Aphid): Systemic Activity; settings: 144 h, test rate of 24 ppm, roots of pea seedlings in test solution, 6 days
Protocol: Example B7: Myzus persicae (Green Peach Aphid): Systemic Activity
Roots of pea seedlings infested with an aphid population of mixed ages were placed directly into aqueous test solutions prepared from 10′000 DMSO stock solutions. The samples were assessed for mortality 6 days after placing seedlings into test solutions.

Myzus persicae [6] = assay: Example B6: Myzus persicae (Green Peach Aphid): Feeding/Contact Activity; settings: foliar, 144 h, application rate of 200 ppm, sprayed sunflower leaf discs, aphid population of mixed ages, 6 days after infestation
Protocol: Example B6: Myzus persicae (Green Peach Aphid): Feeding/Contact Activity
Sunflower leaf discs were placed onto agar in a 24-well microtiter plate and sprayed with aqueous test solutions prepared from 10′000 ppm DMSO stock solutions. After drying, the leaf discs were infested with an aphid population of mixed ages. The samples were assessed for mortality 6 days after infestation.

Plutella xylostella [7] = assay: Example B12: Plutella xylostella (Diamondback Moth), 96-well artificial diet; settings: 216 h, application rate of 500 ppm, eggs, 9 days after infestation
Protocol: Example B12: Plutella xylostella (Diamondback Moth)
96-well microtiter plates containing artificial diet were treated with aqueous test solutions, prepared from 10′000 ppm DMSO stock solutions, by a liquid handling robot. After drying, eggs (˜30 per well) were infested onto a netted lid which was suspended above the diet. The eggs hatch and L1 larvae move down to the diet. The samples were assessed for mortality 9 days after infestation.

Spodoptera littoralis [8] = assay: Example B10: Spodoptera littoralis (Egyptian Cotton Leaf Worm), uptake by lettuce roots from agar; settings: 144 h, test rate of 12.5 ppm, compound in agar absorbed by lettuce roots, eggs, 6 days after infestation, read-out: control in at least one of the three categories (mortality, anti-feedant, or growth inhibition)
Text: Example B10: Spodoptera littoralis (Egyptian Cotton Leaf Worm)
Test compounds were applied by pipette from 10′000 ppm DMSO stock solutions into 24-well plates and mixed with agar. Lettuce seeds were placed onto the agar and the multi well plate was closed by another plate which contained also agar. After 7 days the compound was absorbed by the roots and the lettuce grew into the lid plate. The lettuce leaves were then cut off into the lid plate. Spodoptera eggs were pipetted through a plastic stencil onto a humid gel blotting paper and the lid plate was closed with it. The samples were assessed for mortality, anti-feedant effect and growth inhibition in comparison to untreated samples 6 days after infestation.

CC(NC(=O)c1cc(C(F)(F)F)nc(C2(C#N)CC2)c1)c1nccnc1-c1ncccn1 (centres unmarked) [P32, 2-(1-cyanocyclopropyl)-N-[1-(3-pyrimidin-2-ylpyrazin-2-yl)ethyl]-6-(trifluoromethyl)pyridine-4-carboxamide]
≥ 80%: mortality at 12 ppm (Myzus persicae [1]) | percent control (mortality, anti-feedant effect or growth inhibition) at 200 ppm (Spodoptera littoralis [2]) | percent control (mortality, anti-feedant effect or growth inhibition) at 200 ppm (Chilo suppressalis) | percent control (mortality or growth inhibition) at 200 ppm (Diabrotica balteata) | percent control (mortality or growth inhibition) at 200 ppm (Plutella xylostella [3]) | percent control (mortality or growth inhibition) at 200 ppm (Euschistus heros) | mortality at 200 ppm [4]

CC(NC(=O)c1cc(OC(F)(F)F)cc(C2(C#N)CC2)c1)c1nccnc1-c1ncccn1 (centres unmarked) [P46, 3-(1-cyanocyclopropyl)-N-[1-(3-pyrimidin-2-ylpyrazin-2-yl)ethyl]-5-(trifluoromethoxy) benzamide]
≥ 80%: mortality at 12 ppm (Myzus persicae [1]) | percent control (mortality, anti-feedant effect or growth inhibition) at 200 ppm (Spodoptera littoralis [2]) | percent control (mortality, anti-feedant effect or growth inhibition) at 200 ppm (Chilo suppressalis) | percent control (mortality or growth inhibition) at 200 ppm (Diabrotica balteata) | mortality at 24 ppm (Myzus persicae [5]) | percent control (mortality or growth inhibition) at 200 ppm (Plutella xylostella [3]) | percent control (mortality or growth inhibition) at 200 ppm (Euschistus heros) | mortality at 200 ppm (Myzus persicae [6])

CC(NC(=O)c1cc(C(F)(F)F)cc(C(F)(F)C2CC2)c1)c1nccnc1-c1ncc(C2CC2)cn1 (centres unmarked) [P39, 3-[cyclopropyl(difluoro)methyl]-N-[1-[3-(5-cyclopropylpyrimidin-2-yl)pyrazin-2-yl]ethyl]-5-(trifluoromethyl)benzamide]
≥ 80%: mortality at 500 ppm (Plutella xylostella [7]) | percent control (mortality, anti-feedant effect or growth inhibition) at 12.5 ppm (Spodoptera littoralis [8]) | percent control (mortality, anti-feedant effect or growth inhibition) at 200 ppm (Spodoptera littoralis [2]) | percent control (mortality, anti-feedant effect or growth inhibition) at 200 ppm (Chilo suppressalis) | percent control (mortality or growth inhibition) at 200 ppm (Diabrotica balteata) | percent control (mortality or growth inhibition) at 200 ppm (Plutella xylostella [3])

CC(NC(=O)c1cc(OC(F)F)cc(C2(C#N)CC2)c1)c1nccnc1-c1ncccn1 (centres unmarked) [P44, 3-(1-cyanocyclopropyl)-5-(difluoromethoxy)-N-[1-(3-pyrimidin-2-ylpyrazin-2-yl)ethyl]benzamide]
≥ 80%: mortality at 12 ppm (Myzus persicae [1]) | percent control (mortality, anti-feedant effect or growth inhibition) at 200 ppm (Spodoptera littoralis [2]) | percent control (mortality, anti-feedant effect or growth inhibition) at 200 ppm (Chilo suppressalis) | percent control (mortality or growth inhibition) at 200 ppm (Diabrotica balteata) | mortality at 24 ppm (Myzus persicae [5]) | percent control (mortality or growth inhibition) at 200 ppm (Plutella xylostella [3]) | percent control (mortality or growth inhibition) at 200 ppm (Euschistus heros) | mortality at 200 ppm (Myzus persicae [6]) | mortality at 200 ppm [4]

CC(NC(=O)c1cc(C2CC2)nc(C(F)(F)F)c1)c1nccnc1-c1ncccn1 (centres unmarked) [P31, 2-cyclopropyl-N-[1-(3-pyrimidin-2-ylpyrazin-2-yl)ethyl]-6-(trifluoromethyl)pyridine-4-carboxamide]
≥ 80%: mortality at 12 ppm (Myzus persicae [1]) | percent control (mortality, anti-feedant effect or growth inhibition) at 200 ppm (Spodoptera littoralis [2]) | percent control (mortality, anti-feedant effect or growth inhibition) at 200 ppm (Chilo suppressalis) | percent control (mortality or growth inhibition) at 200 ppm (Diabrotica balteata) | percent control (mortality or growth inhibition) at 200 ppm (Plutella xylostella [3]) | percent control (mortality or growth inhibition) at 200 ppm (Euschistus heros) | mortality at 200 ppm [4]

CC(NC(=O)c1cc(C(F)(F)F)cc(S(=O)(=O)C2CC2)c1)c1nccnc1-c1ncccn1 (centres unmarked) [P10, 3-cyclopropylsulfonyl-N-[1-(3-pyrimidin-2-ylpyrazin-2-yl)ethyl]-5-(trifluoromethyl) benzamide]
≥ 80%: mortality at 12 ppm (Myzus persicae [1]) | percent control (mortality, anti-feedant effect or growth inhibition) at 200 ppm (Chilo suppressalis) | mortality at 24 ppm (Myzus persicae [5]) | percent control (mortality or growth inhibition) at 200 ppm (Plutella xylostella [3]) | percent control (mortality or growth inhibition) at 200 ppm (Euschistus heros) | mortality at 200 ppm [4]

CC(NC(=O)c1cc(OC(F)F)cc(S(=O)(=O)C(F)(F)F)c1)c1nccnc1-c1ncccn1 (centres unmarked) [P45, 3-(difluoromethoxy)-N-[1-(3-pyrimidin-2-ylpyrazin-2-yl)ethyl]-5-(trifluoromethylsulfonyl) benzamide]
≥ 80%: percent control (mortality, anti-feedant effect or growth inhibition) at 200 ppm (Spodoptera littoralis [2]) | percent control (mortality, anti-feedant effect or growth inhibition) at 200 ppm (Chilo suppressalis) | percent control (mortality or growth inhibition) at 200 ppm (Plutella xylostella [3]) | mortality at 200 ppm (Myzus persicae [6])
